Results taken from patent US20250129070A1, “BIFUNCTIONAL ANDROGEN RECEPTOR COMPOUNDS” (priority 2023, published 2025).

System: AR / CBP ternary complex
Assay: Ternary complex formation assay (sandwich ELISA, AR capture / CBP detection) in VCaP cell lysates
Assay type: cell-based
Conditions: 1.5 hours treatment, sandwich ELISA (AR capture, CBP or p300 detection)
Protocol: Preparation of Mouse Anti-AR Antibody Coated 96 Well Plates
Black MaxiSorp plates: coat with 50 μL of mouse 1/50 diluted AR antibody (Monoclonal Antibody (AR 441 from Thermo Fisher); diluted in phosphate buffered saline (PBS). Spin the liquid to the bottom of the wells, if necessary. Incubate overnight at 4° C. Next day, wash 3 times with 200 μL of TBST. Block with 200 μL of blocking buffer (5% BSA in TBST) at room temperature for 2 hours (BSA: A4503 or A2153 from Sigma). Wash plates 3 times with TBST. Plates are ready for lysates Preparation of dimerizer treated lysates
Culture cells in 96 wells at 50K VCaP cells/well for at least 3 days. Plate in 5% Omega charcoal stripped FBS in total volume of 200 uL. Treat with bifunctional for 1.5 hours by adding 1 μL of 200× stock in DMSO. Aspirate media/compound. Add and pipet-to-mix 70 μL of 1× AlphaLisa Lysis Buffer to each well (Perkin Elmer, AlphaLISA SureFire Ultra, diluted in water). Pipet up and down when adding lysis buffer to disrupt cells. Let lysis proceed for 30 min at 4° C.
Incubate for 1 hour at room temperature. Flick out the lysates. Wash 3 times with TBST. Add 75 μL of rabbit CBP or p300 antibody to each well (diluted 1:5000 in blocking buffer (5% BSA in TBST). CBP antibody: (D6C5) Rabbit mAb #7389; p300 antibody: (D8Z4E) Rabbit mAb #86377. Incubate overnight at 4° C. Wash 3 times with 300 uL TBST, each time on shaker for 5-10 min. Prepare goat anti-rabbit antibody conjugated to HRP (1/100K dilution in blocking buffer) Invitrogen Catalog number: 32260. Add 75 μL of HRP-conjugated goat anti-rabbit antibody. Incubate at room temperature for 1 hour. Flick out the HRP-antibody mixture. Wash 7-8 times with TBST, each time on shaker for 10 min. Later washes try to overflow the wells so that no residual HRP remains bound to the sides of the well. Prepare and add 75 uL/well of QuantaRed Enhance Chemifluorescent HRP Substrate solution. Immediately read fluorescence on BMG ClarioStar (ex: 570/em 585), and repeat the read in 5 minutes and 15 minutes.

Structure (SMILES)	EC50 [nM]
CC(=O)N1CCc2c(c(N3CCCc4cc(-c5cnn(C)c5)c(C(F)F)cc43)nn2C2CCC(N(C)C3CCN(c4ncc(C(=O)NC5C(C)(C)C(Oc6ccc(C#N)c(Cl)c6)C5(C)C)cn4)CC3)CC2)C1 (stereo not drawn) [Compound 282, 2-[4-[[4-[5-acetyl-3-[7-(difluoromethyl)-6-(1-methylpyrazol-4-yl)-3,4-dihydro-2H-quinolin-1-yl]-6,7-dihydro-4H-pyrazolo[4,3-c]pyridin-1-yl]cyclohexyl]-methyl-amino]-1-piperidyl]-N-[3-(3-chloro-4-cyano-phenoxy)-2,2,4,4-tetramethyl-cyclobutyl]pyrimidine-5-carboxamide]	< 1
CC(=O)N1CCc2c(c(-c3cccc4cc(-c5cnn(C)c5)ncc34)nn2C2CCN(CC3C(C)CN(c4ncc(C(=O)NC5C(C)(C)C(Oc6ccc(C#N)c(Cl)c6)C5(C)C)cn4)CC3C)CC2)C1 (stereo not drawn) [Compound 440, 2-[4-[[4-[5-acetyl-3-[3-(1-methylpyrazol-4-yl)-8-isoquinolyl]-6,7-dihydro-4H-pyrazolo[4,3-c]pyridin-1-yl]-1-piperidyl]methyl]-3,5-dimethyl-1-piperidyl]-N-[3-(3-chloro-4-cyano-phenoxy)-2,2,4,4-tetramethyl-cyclobutyl]pyrimidine-5-carboxamide]	< 1
CC(=O)N1CCc2c(c(N3CCCc4cc(-c5cnn(C)c5)c(C(F)F)cc43)nn2CCOc2ncc(C(=O)NC3C(C)(C)C(Oc4ccc(C#N)c(Cl)c4)C3(C)C)cn2)C1 (stereo not drawn) [Compound 46, 2-[2-[5-acetyl-3-[7-(difluoromethyl)-6-(1-methylpyrazol-4-yl)-3,4-dihydro-2H-quinolin-1-yl]-6,7-dihydro-4H-pyrazolo[4,3-c]pyridin-1-yl]ethoxy]-N-[3-(3-chloro-4-cyano-phenoxy)-2,2,4,4-tetramethyl-cyclobutyl]pyrimidine-5-carboxamide]	< 1
CC(=O)N1CCc2c(c(N3CCCc4cc(-c5cnn(C)c5)c(C(F)F)cc43)nn2C2CCN(CC3CCN(c4ccc(C(=O)NC5C(C)(C)C(Oc6ccc(C#N)c(Cl)c6)C5(C)C)nn4)CC3)CC2)C1 (stereo not drawn) [Compound 117, 6-[4-[[4-[5-acetyl-3-[7-(difluoromethyl)-6-(1-methylpyrazol-4-yl)-3,4-dihydro-2H-quinolin-1-yl]-6,7-dihydro-4H-pyrazolo[4,3-c]pyridin-1-yl]-1-piperidyl]methyl]-1-piperidyl]-N-[3-(3-chloro-4-cyano-phenoxy)-2,2,4,4-tetramethyl-cyclobutyl]pyridazine-3-carboxamide]	1 to 10
CC(=O)N1CCc2c(c(N3CCCc4cc(-c5cnn(C)c5)c(C(F)F)cc43)nn2C2CCC(OC3CN(c4ncc(C(=O)NC5C(C)(C)C(Oc6ccc(C#N)c(Cl)c6)C5(C)C)cn4)C3)CC2)C1 (stereo not drawn) [Compound 340, 2-[3-[4-[5-acetyl-3-[7-(difluoromethyl)-6-(1-methylpyrazol-4-yl)-3,4-dihydro-2H-quinolin-1-yl]-6,7-dihydro-4H-pyrazolo[4,3-c]pyridin-1-yl]cyclohexoxy]azetidin-1-yl]-N-[3-(3-chloro-4-cyano-phenoxy)-2,2,4,4-tetramethyl-cyclobutyl]pyrimidine-5-carboxamide]	< 1
CC(=O)N1CCc2c(c(N3CCCc4cc(-c5cnn(C)c5)c(C(F)F)cc43)nn2C2CN(C(=O)C3CCN(c4ncc(C(=O)NC5C(C)(C)C(Oc6ccc(C#N)c(Cl)c6)C5(C)C)cn4)CC3)C2)C1 (stereo not drawn) [Compound 119, 2-[4-[3-[5-acetyl-3-[7-(difluoromethyl)-6-(1-methylpyrazol-4-yl)-3,4-dihydro-2H-quinolin-1-yl]-6,7-dihydro-4H-pyrazolo[4,3-c]pyridin-1-yl]azetidine-1-carbonyl]-1-piperidyl]-N-[3-(3-chloro-4-cyano-phenoxy)-2,2,4,4-tetramethyl-cyclobutyl]pyrimidine-5-carboxamide]	< 1

Other lines, results leading:

EC50 [nM]	Structure (SMILES)
< 1	CC(=O)N1CCc2c(c(N3CCCc4cc(-c5cnn(C)c5)c(C(F)F)cc43)nn2C2CCN(C3CCC(Oc4ncc(C(=O)NC5C(C)(C)C(Oc6ccc(C#N)c(Cl)c6)C5(C)C)cn4)CC3)CC2)C1 (stereo not drawn) [Compound 382, 2-[4-[4-[5-acetyl-3-[7-(difluoromethyl)-6-(1-methylpyrazol-4-yl)-3,4-dihydro-2H-quinolin-1-yl]-6,7-dihydro-4H-pyrazolo[4,3-c]pyridin-1-yl]-1-piperidyl]cyclohexoxy]-N-[3-(3-chloro-4-cyano-phenoxy)-2,2,4,4-tetramethyl-cyclobutyl]pyrimidine-5-carboxamide]
< 1	CC(=O)N1CCc2c(c(-c3cccc4cc(-c5cnn(CCOC6CCN(c7ncc(C(=O)NC8C(C)(C)C(Oc9ccc(C#N)c(Cl)c9)C8(C)C)cn7)CC6)c5)ncc34)nn2C2CCOCC2)C1 (stereo not drawn) [Compound 138, 2-[4-[2-[4-[8-(5-acetyl-1-tetrahydropyran-4-yl-6,7-dihydro-4H-pyrazolo[4,3-c]pyridin-3-yl)-3-isoquinolyl]pyrazol-1-yl]ethoxy]-1-piperidyl]-N-[3-(3-chloro-4-cyano-phenoxy)-2,2,4,4-tetramethyl-cyclobutyl]pyrimidine-5-carboxamide]
< 1	COc1cc(OC2C(C)(C)C(NC(=O)c3ccc(N4CC(N5CC6(CCC(n7nc(N8CCCc9cc(-c%10cnn(C)c%10)c(C(F)F)cc98)c8c7CCN(C(C)=O)C8)CC6)C5)C4)cc3)C2(C)C)ccc1C#N (stereo not drawn) [Compound 370, 4-[3-[7-[5-acetyl-3-[7-(difluoromethyl)-6-(1-methylpyrazol-4-yl)-3,4-dihydro-2H-quinolin-1-yl]-6,7-dihydro-4H-pyrazolo[4,3-c]pyridin-1-yl]-2-azaspiro[3.5]nonan-2-yl]azetidin-1-yl]-N-[3-(4-cyano-3-methoxy-phenoxy)-2,2,4,4-tetramethyl-cyclobutyl]benzamide]
< 1	CC(=O)N1CCc2c(c(N3CCCc4cc(-c5cnco5)c(C(F)F)cc43)nn2C2CCN(CC3C(C)CN(c4ncc(C(=O)NC5C(C)(C)C(Oc6ccc(C#N)c(Cl)c6)C5(C)C)cn4)CC3C)CC2)C1 (stereo not drawn) [Compound 424, 2-[4-[[4-[5-acetyl-3-[7-(difluoromethyl)-6-oxazol-5-yl-3,4-dihydro-2H-quinolin-1-yl]-6,7-dihydro-4H-pyrazolo[4,3-c]pyridin-1-yl]-1-piperidyl]methyl]-3,5-dimethyl-1-piperidyl]-N-[3-(3-chloro-4-cyano-phenoxy)-2,2,4,4-tetramethyl-cyclobutyl]pyrimidine-5-carboxamide]
< 1	CC(=O)N1CCc2c(c(N3CCCc4cnccc43)nn2C2CCN(CC3CCN(c4ncc(C(=O)NC5C(C)(C)C(Oc6ccc(C#N)c(Cl)c6)C5(C)C)cn4)CC3)CC2)C1 (stereo not drawn) [Compound 157, 2-[4-[[4-[5-acetyl-3-(3,4-dihydro-2H-1,6-naphthyridin-1-yl)-6,7-dihydro-4H-pyrazolo[4,3-c]pyridin-1-yl]-1-piperidyl]methyl]-1-piperidyl]-N-[3-(3-chloro-4-cyano-phenoxy)-2,2,4,4-tetramethyl-cyclobutyl]pyrimidine-5-carboxamide]
< 1	CC(=O)N1CCc2c(c(-c3cccc4cc(-c5cnn(CC6CCN(c7ncc(C(=O)NC8C(C)(C)C(Oc9ccc(C#N)c(Cl)c9)C8(C)C)cn7)CC6)c5)ncc34)nn2C2CCOCC2)C1 (stereo not drawn) [Compound 137, 2-[4-[[4-[8-(5-acetyl-1-tetrahydropyran-4-yl-6,7-dihydro-4H-pyrazolo[4,3-c]pyridin-3-yl)-3-isoquinolyl]pyrazol-1-yl]methyl]-1-piperidyl]-N-[3-(3-chloro-4-cyano-phenoxy)-2,2,4,4-tetramethyl-cyclobutyl]pyrimidine-5-carboxamide]
